This assay concerns HIV-1IIIB (wild type). Put plainly: XTT assay in MT-4 cells infected with wild type HIV-1IIIB. Particulars: Human immunodeficiency virus 1, MT4, read-out: ED50. It counts as cell-based. The procedure: Compounds of the invention are assayed for HIV activity, for example using multiple determinations with XTT in MT-4 cells (Weislow et al, J Nat Cancer Inst 1989, vol 81 no 8, 577 et seq), preferably including determinations in the presence of 40-50% human serum to indicate the contribution of protein binding. In short the XTT assay uses human T cell line MT4 cells grown in RPMI 1640 medium supplemented with 10% fetal calf serum (or 40-50% human serum as appropriate), penicillin and streptomycin seeded into 96 well microplates (2·10^4 cells/well) infected with 10-20 TCID50 per well of HIV-1IIIB (wild type) or mutant virus, such as those bearing RT IIe 100, Cys 181 or Asn 103 mutations. Serially diluted test compounds are added to respective wells and the culture incubated at 37° C. in a CO2 enriched atmosphere and the viability of cells is determined at day five or six with XTT vital dye. Results are typically presented as ED50 μM.
(Tetrazolium dyes change colour on reduction, which living cells bring about.)
Regarding `N#Cc1ccc(NC(=O)N[C@@H]2[C@@H]3Cc4cc(Br)ccc4[C@@H]32)nc1` (racemic) [Example 17, (±)-cis-1-(5-cyano-2-pyridinyl)-3-(4-bromo-1,1a,6,6a-tetrahydro-cyclopropa[a]inden-1-yl)-urea], the EC50 was 42 nM. The value for `O=C(Nc1ccc(Cl)cn1)N[C@@H]1[C@@H]2Cc3c(F)ccc(F)c3[C@@H]21` (racemic) [Example 19, (±)-cis-1-(5-chloro-2-pyridinyl)-3-(2,5-difluoro-1,1a,6,6a-tetrahydro-cyclopropa[a]inden-1-yl)-urea] was 10 nM. `N#Cc1ccc(NC(=O)N[C@@H]2[C@@H]3Cc4c(F)ccc(F)c4[C@@H]32)nc1` (racemic) [Example 20, (±)-cis-1-(5-cyano-2-pyridinyl)-3-(2,5-difluoro-1,1a,6,6a-tetrahydro-cyclopropa[a]inden-1-yl)-urea]: the EC50 was found to be 14 nM.

Turning to `COc1ccc2c(c1)CC[C@H]1[C@@H](NC(=O)Nc3ccc(C#N)cn3)[C@@H]21` [Example 5, +/−cis-N-(5-cyano-2-pyridinyl)-N-(5-methoxy-1a,2,3,7b-tetrahydro-1H-cyclopropa[a]naphthalen-1-yl)urea], the EC50 amounted to 9 nM. In the case of `COc1ccc2c(c1)[C@H]1[C@@H](CC2)[C@H]1NC(=O)Nc1ccc(C#N)cn1` [Example 6, +/−cis-N-(5-cyano-2-pyridinyl)-N-(6-methoxy-1a,2,3,7b-tetrahydro-1H cyclopropa[a]naphthalen-1-yl)urea] it was 36 nM; in that of `C#Cc1ccc2c(c1)CC[C@H]1[C@@H](NC(=O)Nc3ccc(C#N)cn3)[C@@H]21` [Example 8, +/−cis-N-(5-cyano-2-pyridinyl)-N-(5-ethynyl-1a,2,3,7b-tetrahydro-1H-cyclopropa[a]naphthalen-1-yl)urea], 32 nM; in that of `C#Cc1ccc2c(c1)CC[C@H]1[C@@H](NC(=O)Nc3ccc(Br)cn3)[C@@H]21` [Example 9, +/−cis-N-(5-bromo-2-pyridinyl)-N-(5-ethynyl-1a,2,3,7b-tetrahydro-1H-cyclopropa[a]naphthalen-1-yl)urea], 44 nM.
